Laboratory results published in US6444850B1, “Fungicidial compounds having a fluorovinyloxphyenyl moiety and process for the preparation thereof” (priority 1997, dated 2002).

How the values were obtained:
Botrytis cinerae = test: Fungicidal activity against cucumber gray mold rot (CGM) disease; type: in vivo; settings: 50 ppm, control value
Rhizoctonia solani AG-1 = test: Fungicidal activity against rice sheath blight (RSB) disease; settings: 50 ppm, control value
Procedure: 50 ml of the resulting solution was sprayed on leaves of a host plant. The plant was kept at room temperature for 24 hours to let the solvent evaporate, and then, a pathogenic fungus was inoculated thereonto. The plant was held in a humidity chamber for 24 hours, transferred to an plant growth room kept at 20 to 27° C. and a relative humidity of 60 to 80% and kept to induce disease. Subsequently, the lesion area(L.A.) attacked by the pathogenic fungus was measured according to a method of Cho(Cho, K. Y., Search Report by Korea Research Institute of Chemical Technology (1989))”. This procedure was repeated twice for each test. 10% Acetone solution containing 250 ppm of Tween-20 was used as a control.
The fungicidal activity of the compound of the present invention is repressed by a control value (C.V.) calculated as; [formula]
Rhizoctonia solani AG-1 was cultured on a PDA medium(potato 200 g, dextrose 20 g, agar 20 g and distilled water 1 l) for 3 days and the agar disc (diameter 0.6 cm) was inoculated and cultured on sterilized wheat bran medium in a 1 l bottle at 26 to 28° C. for 7 days. A mycelial mass was ground using a homogenizer, inoculated uniformly on soil of a pot wherein a Nakdong rice plant having 2 or 3 leaves and an height of 5 cm grew, and kept in humidity polyvinyl chamber for 5 days to induce RSB. L.A. on a leaf sheath was measured to calculate an C.V.

Puccinia recondita = test: Fungicidal activity against wheat leaf rust (WLR) disease; type: in vivo; settings: for C. V. (%) WLR: 50 ppm, control value, wheat leaf rust; for C. V. (%), Fungicidal Activities against WLB at 10 ppm: Table 8 (Test Example 5)
Phytophthora infestans = type: in vivo; settings: 50 ppm; control value, tomato late blight
[1] = test system: Pyricularia oryzae Carvara KA301; type: in vivo; settings: for C. V. (%) RCB: 50 ppm, control value, rice blast; for C. V. (%) Fungicidal Activities against RCB at 10 ppm / C. V. (%) Fungicidal Activities against RCB at 10 ppm (TABLE 6): sprayed on Nakdong rice plant, control value from lesion area
Erysiphae graminis = test: Fungicidal activity against barley powdery mildew (BPM) disease; type: in vivo; settings: for C. V. (%) BPM: 50 ppm, control value, barley powdery mildew; for C. V. (%), Fungicidal activities against TLB at 10 ppm: Table 9 (Test Example 6)

CNC(=O)/C(=C/OC)c1ccccc1COc1cccc(OC(F)=C(c2ccc(C)c(C)c2)C(F)(F)F)c1 [Compound 64]
C. V. (%) CGM (Botrytis cinerae): 0%
C. V. (%) RSB (Rhizoctonia solani AG-1): 0%
C. V. (%) WLR (Puccinia recondita): 0%
C. V. (%) TLB (Phytophthora infestans): 22%
C. V. (%) RCB [1]: 16%
C. V. (%) BPM (Erysiphae graminis): 0%

CO/N=C(/C(=O)OC)c1ccccc1COc1cccc(OC(F)=C(c2ccc(C)c(C)c2)C(F)(F)F)c1 [Compound 65]
C. V. (%) CGM (Botrytis cinerae): 16%
C. V. (%) RSB (Rhizoctonia solani AG-1): 90%
C. V. (%), Fungicidal Activities against WLB at 10 ppm (Puccinia recondita): 100%
C. V. (%) WLR (Puccinia recondita): 99%
C. V. (%) TLB (Phytophthora infestans): 33%
C. V. (%) RCB [1]: 91%
C. V. (%), Fungicidal activities against TLB at 10 ppm (Erysiphae graminis): 94%
C. V. (%) BPM (Erysiphae graminis): 99%

CNC(=O)/C(=N/OC)c1ccccc1COc1cccc(OC(F)=C(c2ccc(C)c(C)c2)C(F)(F)F)c1 [Compound 66]
C. V. (%) CGM (Botrytis cinerae): 0%
C. V. (%) RSB (Rhizoctonia solani AG-1): 40%
C. V. (%), Fungicidal Activities against WLB at 10 ppm (Puccinia recondita): 100%
C. V. (%) WLR (Puccinia recondita): 100%
C. V. (%) TLB (Phytophthora infestans): 18%
C. V. (%) Fungicidal Activities against RCB at 10 ppm [1]: 100%
C. V. (%) Fungicidal Activities against RCB at 10 ppm (TABLE 6) [1]: 100%
C. V. (%) RCB [1]: 98%
C. V. (%), Fungicidal activities against TLB at 10 ppm (Erysiphae graminis): 100%
C. V. (%) BPM (Erysiphae graminis): 100%

CO/C=C(/C(=O)OC)c1ccccc1COc1cccc(OC(F)=C(c2cc(C)cc(C)c2)C(F)(F)F)c1 [Compound 67]
C. V. (%) CGM (Botrytis cinerae): 16%
C. V. (%) RSB (Rhizoctonia solani AG-1): 50%
C. V. (%) WLR (Puccinia recondita): 100%
C. V. (%) TLB (Phytophthora infestans): 25%
C. V. (%) RCB [1]: 80%
C. V. (%), Fungicidal activities against TLB at 10 ppm (Erysiphae graminis): 100%
C. V. (%) BPM (Erysiphae graminis): 100%

CNC(=O)/C(=C/OC)c1ccccc1COc1cccc(OC(F)=C(c2cc(C)cc(C)c2)C(F)(F)F)c1 [Compound 68]
C. V. (%) CGM (Botrytis cinerae): 0%
C. V. (%) RSB (Rhizoctonia solani AG-1): 0%
C. V. (%) WLR (Puccinia recondita): 56%
C. V. (%) TLB (Phytophthora infestans): 22%
C. V. (%) RCB [1]: 0%
C. V. (%) BPM (Erysiphae graminis): 0%

CNC(=O)/C(=N/OC)c1ccccc1COc1cccc(OC(F)=C(c2cc(C)cc(C)c2)C(F)(F)F)c1 [Compound 70]
C. V. (%) CGM (Botrytis cinerae): 0%
C. V. (%) RSB (Rhizoctonia solani AG-1): 0%
C. V. (%), Fungicidal Activities against WLB at 10 ppm (Puccinia recondita): 100%
C. V. (%) WLR (Puccinia recondita): 100%
C. V. (%) TLB (Phytophthora infestans): 0%
C. V. (%) Fungicidal Activities against RCB at 10 ppm [1]: 100%
C. V. (%) Fungicidal Activities against RCB at 10 ppm (TABLE 6) [1]: 100%
C. V. (%) RCB [1]: 100%
C. V. (%), Fungicidal activities against TLB at 10 ppm (Erysiphae graminis): 100%
C. V. (%) BPM (Erysiphae graminis): 100%

COC=C(C(=O)OC)c1ccccc1COc1cccc(OC(F)=C(c2cccc(OC)c2)C(F)(F)F)c1 [Compound 71]
C. V. (%) CGM (Botrytis cinerae): 41%
C. V. (%) RSB (Rhizoctonia solani AG-1): 40%
C. V. (%), Fungicidal Activities against WLB at 10 ppm (Puccinia recondita): 95%
C. V. (%) WLR (Puccinia recondita): 100%
C. V. (%) TLB (Phytophthora infestans): 62%
C. V. (%) RCB [1]: 90%
C. V. (%), Fungicidal activities against TLB at 10 ppm (Erysiphae graminis): 100%
C. V. (%) BPM (Erysiphae graminis): 100%

CNC(=O)C(=COC)c1ccccc1COc1cccc(OC(F)=C(c2cccc(OC)c2)C(F)(F)F)c1 [Compound 72]
C. V. (%) CGM (Botrytis cinerae): 0%
C. V. (%) RSB (Rhizoctonia solani AG-1): 33%
C. V. (%) WLR (Puccinia recondita): 0%
C. V. (%) TLB (Phytophthora infestans): 33%
C. V. (%) RCB [1]: 0%
C. V. (%) BPM (Erysiphae graminis): 0%

CON=C(C(=O)OC)c1ccccc1COc1cccc(OC(F)=C(c2cccc(OC)c2)C(F)(F)F)c1 [Compound 73]
C. V. (%) CGM (Botrytis cinerae): 9%
C. V. (%) RSB (Rhizoctonia solani AG-1): 92%
C. V. (%), Fungicidal Activities against WLB at 10 ppm (Puccinia recondita): 96%
C. V. (%) WLR (Puccinia recondita): 98%
C. V. (%) TLB (Phytophthora infestans): 60%
C. V. (%) RCB [1]: 93%
C. V. (%), Fungicidal activities against TLB at 10 ppm (Erysiphae graminis): 88%
C. V. (%) BPM (Erysiphae graminis): 93%

CNC(=O)C(=NOC)c1ccccc1COc1cccc(OC(F)=C(c2cccc(OC)c2)C(F)(F)F)c1 [Compound 74]
C. V. (%) CGM (Botrytis cinerae): 52%
C. V. (%) RSB (Rhizoctonia solani AG-1): 70%
C. V. (%), Fungicidal Activities against WLB at 10 ppm (Puccinia recondita): 100%
C. V. (%) WLR (Puccinia recondita): 100%
C. V. (%) TLB (Phytophthora infestans): 64%
C. V. (%) Fungicidal Activities against RCB at 10 ppm [1]: 93%
C. V. (%) Fungicidal Activities against RCB at 10 ppm (TABLE 6) [1]: 93%
C. V. (%) RCB [1]: 100%
C. V. (%), Fungicidal activities against TLB at 10 ppm (Erysiphae graminis): 100%
C. V. (%) BPM (Erysiphae graminis): 100%

CNC(=O)C(=COC)c1ccccc1COc1cccc(OC(F)=C(c2ccc(OC)cc2)C(F)(F)F)c1 [Compound 75]
C. V. (%) CGM (Botrytis cinerae): 0%
C. V. (%) RSB (Rhizoctonia solani AG-1): 40%
C. V. (%) WLR (Puccinia recondita): 0%
C. V. (%) TLB (Phytophthora infestans): 33%
C. V. (%) RCB [1]: 0%
C. V. (%) BPM (Erysiphae graminis): 0%

CON=C(C(=O)OC)c1ccccc1COc1cccc(OC(F)=C(c2ccc(OC)cc2)C(F)(F)F)c1 [Compound 76]
C. V. (%) CGM (Botrytis cinerae): 0%
C. V. (%) RSB (Rhizoctonia solani AG-1): 90%
C. V. (%), Fungicidal Activities against WLB at 10 ppm (Puccinia recondita): 99%
C. V. (%) WLR (Puccinia recondita): 96%
C. V. (%) TLB (Phytophthora infestans): 44%
C. V. (%) RCB [1]: 63%
C. V. (%), Fungicidal activities against TLB at 10 ppm (Erysiphae graminis): 96%
C. V. (%) BPM (Erysiphae graminis): 99%
